The values below come from patent publication US10918891B2, “Cosmetic treatment method for the skin” (SYNTIVIA, priority 2016, dated 2021).

The test system of assay [1] is NHDF cells. As to the kind of experiment: DNA double-strand breaks (γ-H2AX) induced by cigarette extract in NHDF. Type of assay: cell-based, human. To be noted: (Ia) 10 ppm pretreatment 24 h and treatment 24 h, cigarette extract 1/50, Control 6441, Cigarette extract 11404. As for the experimental part:
(§1) The cells used for this example are normal human Fibroblasts (NHDF) and normal human epidermal Keratinocytes (NHEK).
The cells are cultured at the concentration of 3000 cells per well of 96-well plates in the presence of standard culture medium for NHDF or NHEK (for 24 hours, 37° C., 5% CO2).
After pretreatment of the cells with the compound (Ia) at 10 ppm for 24 hours, the cells are treated with the cigarette extract diluted to 1/50° with or without compound (Ia) at 10 ppm for 24 hours. […].
After washing, the samples are then placed in the presence of DAPI for 10 min in order to mark the nuclei, then rinsed once again. The marked proteins are observed and quantified with an automated fluorescence microscope (ArrayScan® (Cellomics®)). The cells treated by the compound (Ia) are then compared to the untreated cells or to the cells only exposed to the cigarette extract.

The test system of assay [2] is normal human Fibroblasts (NHDF). In words: Cellular viability test with cadmium on NHDF. The note with it: pretreatment 24 h and treatment 24 h with (Ia) 10 ppm, Cd 3 ppm, read at 450 nm, CTL (Cd 3 ppm) 0.95. The class given is cell-based. As for the experimental part: The cells used for this example are normal human Fibroblasts (NHDF).
A cellular viability test with cadmium is carried out in order to know the protective effect of the compound (Ia) against polluting stress. Cadmium (Cd) is a toxic and ecotoxic heavy metal found in the environment.
The cells are cultured at the concentration of 7000 cells per well of 96-well plates.
The pretreatment is carried out 24 hours after the inoculation of the cells with the compound (Ia) at 10 ppm in an aqueous solution with 0.1% dimethylsulfoxide, or without compound (Ia) for 24 hours.
After the pretreatment, a treatment with cadmium is carried out. The cells are placed in the presence of cadmium at 3 ppm+compound (Ia) at 10 ppm, or only in the presence of cadmium at 3 ppm (CTL) for 24 hours at 37° C., 5% CO2. The control without stress (CTL without stress) corresponds to the cells not having undergone a treatment with cadmium.

Assay [3] deals with NHDF cells. In words: Cellular viability (WST1) of NHDF exposed to cigarette extract. The class given is cell-based, human. To be noted: (Ia) 10 ppm pretreatment 24 h and treatment 24 h; cigarette extract diluted 1/50; WST1, 450 nm; Control 1.618, Cigarette extract 1.357. As for the experimental part: as §1
A cigarette extract is prepared using a laboratory device allowing the sucking up of cigarette smoke via a suction system, and the controlled bubbling of this cigarette smoke into the solution studied, which is then filtered on a 0.22 μm filter made of Polyether sulfone (PES).
The cells are cultured at the concentration of 7000 cells per well of 96-well plates (NHDF) or 8000 cells per well (NHEK), in the presence of standard culture medium for NHDF or NHEK (for 24 h 37° C., 5% CO2).
After pretreatment of the cells with the compound (Ia) at 10 ppm for 24 h the cells are treated with the cigarette extract diluted to 1/50th in the culture medium with or without the compound (Ia) at 10 ppm for 24 h. The absorbance is read a first time at […] (Multiskan®).
Then, 10 μl of WST1 (Roche) are introduced into the medium and the cells are incubated for 3 hours.
The absorbance at 450 nm is measured after the addition of WST1 (Multiskan®) and the results obtained, in terms of cellular viability, are shown in tables 11 and 12 below. The treated cells (Cigarette extract+(Ia)) are compared to the untreated cells (Control) or to the cells having only undergone exposure to the cigarette extract (Cigarette extract).
(In general: Tetrazolium assays rely on reduction of a dye to a coloured formazan, in cell work by metabolically active cells.)

Another assay has as its system IL8. As to the kind of experiment: Gene expression of IL8 by quantitative RT-PCR in NHEK. The class given is cell-based, human. To be noted: (Ia) 3 ppm (10^−5M), 24 hours. As for the experimental part: (§2) In these examples, the expression of the messenger RNA is measured by the technique of quantitative RT-PCR (reverse transcription followed by polymerase chain reaction), after incubation in vitro of the various cell types in the absence or in the presence of compound (Ia).
(§3) This study was carried out on normal human dermal Fibroblasts (NHDF) or normal human epidermal Keratinocytes (NHEK). The compound (Ia) is tested at 10^−5M in an aqueous solution with 0.1% dimethylsulfoxide.
(§4) The cells are cultured at the concentration of 10,000 cells per well of 96-well plates, in the presence of standard culture medium according to the cell type.
(§5) The compound (Ia) is then added at the concentration (3 ppm), for 24 hours.
(§6) The supernatant is eliminated and the cells are taken up in a specific buffer for the extraction of the messenger RNA (mRNA). The mRNA is purified and reverse transcribed in the presence of a commercial reverse transcriptase.
(§7) The complementary DNA (cDNA) obtained is quantified by RT-PCR, by means of suitable primers. The rate of expression of the mRNA is normalised with 5 reference genes.
(§8) The cells used for this example are normal human keratinocytes (NHEK).

A further assay relates to MMP-3. In words: Gene expression of MMP-3 by quantitative RT-PCR in NHEK. The class given is cell-based, human. The note with it: (Ia) 3 ppm (10^−5M), 24 hours. How it is done: as §2, §3, §4, §5, §6, §7, §8
The test system of a further assay is ELN (Elastin). As to the kind of experiment: Elastin immunofluorescence on human skin explants after repeated UVA irradiation. The class given is cell-based. To be noted: skin explant, (Ia) 100 ppm. How it is done: In these examples, the protective properties of the compound (Ia) against the damage caused to the DNA and to the extracellular matrix by repeated UVA irradiation, are measured on explants of human skin (NATIVESKIN, Genoskin).
Upon reception of the explants, the latter are topically coated with Carbopol® (Lubrizol)+DMSO for the non-UVA control (CTL without stress) and for the control with stress by UVAs (CTL UVA), and with Carbopol®+compound (Ia) at 100 ppm for the test.
Over three days, the cells are subjected to three stresses with UVAs at a rate of 50 joules per square centimetre.
The first irradiation takes place 24 hours after the treatments. The products are present before, during and after the irradiation. The control without stress is wrapped in aluminium and also placed in the irradiator.
During the irradiation, the explants inserted are disposed in a petri dish with PBS. Fresh medium (Genoskin Culture medium) is added after the irradiation.
After the third day of irradiation, the explants are cultivated for 24 hours, then collected and fixed for 48 hours in formalin (Sigma). The samples are included in paraffin and cut.
Marking of the protein elastin is carried out by immunofluorescence on a paraffin section.
The samples are prepared for the fluorescent marking. […]
The sections are mounted on a slide and the fluorescence is quantified using a microscope (Leica DM5000B).

Marks after values point to notes of the source that are not given here.

Consider `Cc1ncc(CO)c(CNC(=O)/C=C/c2ccc(O)c(O)c2)c1O` [Compound (Ia)], for which the “Double-strand breaks of the DNA for NHDF (AU)” value in the assay with NHDF cells [1] is 8752*** AU. In assay [2], the “Cellular viability during the exposure or non-exposure to cadmium (optical density)” value is reported as 1.28 optical density. Besides, the “Cellular viability on NHDF (Optical density)” value in the assay on NHDF cells [3] is reported as 1.674 Optical density. In the assay with IL8, the “Reduction of the gene expression compared to the basal level based on 100% (IL8)” value is −75%. Moreover, the “Reduction of the gene expression compared to the basal level based on 100% (MMP-3)” value in the assay with MMP-3 was −50%. In addition, in the assay with ELN (Elastin) (CTL UVA 145.9, CTL without stress 160.4), the “Average fluorescence intensity of the marking ELN (AU)” value was found to be 182.4 AU. In addition, the “Cells positive for ELN based on 100%” value in the assay on ELN (Elastin) (relative to CTL without stress, CTL UVA −9%) is reported as “+14%”.
